Measurements reported in PMC10600247, “Impact of C- and N-terminal protection on the stability, metal chelation and antimicrobial properties of calcitermin” (Scientific Reports, 2023).
Residues, ends and D or L forms follow the SMILES beside them.

Legend:
C. albicans (ATCC 10231) = assay: In vitro antifungal CFU assay; format: cell-based, Candida albicans; details: pH 5.4; for mean CFU number ± S.D.: per 0.1 mL
Description: (§1) All microbes were grown at 37 °C in Tryptic Soy Broth (TSB; Biolife, Milan, Italy) or Tryptic Soy Agar plates (TSA, Biolife, Milan, Italy). Peptides were tested at a final concentration C = 0.128, 0.064, 0.032 mg/mL, in the presence or absence of ZnCl2 or CuCl2, at a M:L molar ratio 0.9:1. Briefly, all the microbes were expanded in TSB at 37 °C under agitation for 12 h and then sub-cultured by 1:10 dilution in TSB under the same conditions until reaching OD600nm = 0.3–0.4, as measured by spectrophotometric reading using a GENESYS 10S UV–Vis spectrophotometer (Thermo Scientific, Milan, Italy), corresponding to 0.9–1.2 × 10^7 colony forming units (CFU) per mL, 1.5–2 × 10^8 CFU/mL and 2.4–3.2 × 10^8 CFU/mL, for C. albicans, S. aureus and E. coli respectively. The cultures were then centrifuged at 4500 rpm for 10 min in a SL 8 centrifuge (TX-150 Rotor) (Thermo Scientific, Milan, Italy), and the cellular pellets were washed with PBS pH 5.4. Pelletized cultures were then suspended in 10 mL of PBS pH 5.4, then the suspensions were diluted to a final concentration of 10^4 CFU/mL. Aliquots of 100 µl (corresponding to 10^3 CFU) were seeded in each well of a 96-wells plate. 3 µl of TSB at pH 5.4 were added to each well to obtain a final 1.5% TSB concentration in the culture medium. Peptides were serially diluted in PBS pH 5.4 to C = 0.257, 0.128, and 0.064 mg/mL. ZnCl2 and CuCl2 solutions were added where requested to obtain a M:L ratio 0.9:1. 100 µl of the prepared peptides ± ZnCl2/CuCl2 solutions were then added to each well, obtaining the final 0.128, 0.064 and 0.032 mg/mL peptide concentrations in a total 0.2 mL volume. PBS alone and PBS + ZnCl2/CuCl2 solutions were included as controls. The plates were incubated at 37 °C on a platform rocker with slow stirring for 3 and 24 h. At the end of the incubation times, 100 µl aliquots were taken from each sample and diluted in PBS pH 5.4 to be seeded on TSA plates. Specifically, aliquots were diluted 1:10 at 3 h, and 1:200, 1:100,000 and 1:10 at 24 h, for C. albicans, E. coli, and S. aureus respectively. After incubation for 24 h at 37 °C, grown CFUs were enumerated. Samples were assayed in triplicate in two independent experiments. Student’s t-test was used for the evaluation of significance in biological tests; a p value ≤ 0.05 was considered significant.

E. coli (ATCC 25922) = assay: In vitro anti-E. coli CFU assay; format: cell-based, Escherichia coli; details: pH 5.4; for mean CFU number ± S.D.: per 0.1 mL
Description: as §1

S. aureus (ATCC 25293) = assay: In vitro anti-S. aureus CFU assay; format: cell-based, Staphylococcus aureus; details: 3 h, pH 5.4; for mean CFU number ± S.D.: per 0.1 mL
Description: as §1

[1] = peptide 0.032 mg/mL + CuCl2 (0.9:1), 3 h
[2] = peptide 0.032 mg/mL + CuCl2 (0.9:1), 24 h
[3] = peptide 0.032 mg/mL + ZnCl2 (0.9:1), 3 h
[4] = peptide 0.032 mg/mL + ZnCl2 (0.9:1), 24 h
[5] = peptide 0.064 mg/mL + CuCl2 (0.9:1), 3 h
[6] = peptide 0.064 mg/mL + CuCl2 (0.9:1), 24 h
[7] = peptide 0.064 mg/mL + ZnCl2 (0.9:1), 3 h
[8] = peptide 0.064 mg/mL + ZnCl2 (0.9:1), 24 h
[9] = peptide 0.128 mg/mL + CuCl2 (0.9:1), 3 h
[10] = peptide 0.128 mg/mL + CuCl2 (0.9:1), 24 h
[11] = peptide 0.128 mg/mL + ZnCl2 (0.9:1), 3 h
[12] = peptide 0.128 mg/mL + ZnCl2 (0.9:1), 24 h
[13] = peptide alone 0.032 mg/mL, 24 h
[14] = peptide alone 0.064 mg/mL, 24 h
[15] = peptide alone 0.128 mg/mL, 24 h
[16] = peptide 0.032 mg/mL + CuCl2 (0.9:1)
[17] = peptide 0.032 mg/mL + ZnCl2 (0.9:1)
[18] = peptide 0.064 mg/mL + CuCl2 (0.9:1)
[19] = peptide 0.064 mg/mL + ZnCl2 (0.9:1)
[20] = peptide 0.128 mg/mL + CuCl2 (0.9:1)

## CC[C@H](C)[C@H](NC(=O)[C@H](C)NC(=O)[C@@H](NC(C)=O)C(C)C)C(=O)N[C@@H](C)C(=O)N[C@@H](CC(C)C)C(=O)N[C@@H](CCCCN)C(=O)N[C@@H](C)C(=O)N[C@@H](C)C(=O)N[C@@H](Cc1c[nH]cn1)C(=O)N[C@@H](Cc1ccc(O)cc1)C(=O)N[C@@H](Cc1c[nH]cn1)C(=O)N[C@H](C(=O)N[C@@H](Cc1c[nH]cn1)C(=O)N[C@@H](CCCCN)C(=O)N[C@@H](CCC(=O)O)C(N)=O)[C@@H](C)O [L2, Ac-VAIALKAAHYHTHKE-NH2] (Ac-VAIALKAAHYHTHKE-NH2)
C. albicans (ATCC 10231); [1]
  CFU decrease/increase with respect to untreated controls: +9.3%
  mean CFU number ± S.D.: 153 ± 26 CFU
C. albicans (ATCC 10231); [2]
  CFU decrease/increase with respect to untreated controls: +16%
  mean CFU number ± S.D.: 1,908 ± 83 CFU
C. albicans (ATCC 10231); [3]
  CFU decrease/increase with respect to untreated controls: -7.8%
  mean CFU number ± S.D.: 129 ± 17 CFU
C. albicans (ATCC 10231); [4]
  CFU decrease/increase with respect to untreated controls: +14%
  mean CFU number ± S.D.: 1,873 ± 83 CFU
C. albicans (ATCC 10231); [5]
  CFU decrease/increase with respect to untreated controls: +29%
  mean CFU number ± S.D.: 180 ± 81 CFU
C. albicans (ATCC 10231); [6]
  mean CFU number ± S.D.: 1,360 ± 140 CFU
C. albicans (ATCC 10231); [7]
  CFU decrease/increase with respect to untreated controls: -44%
  mean CFU number ± S.D.: 79 ± 18 CFU
C. albicans (ATCC 10231); [8]
  mean CFU number ± S.D.: 881 ± 99 CFU
C. albicans (ATCC 10231); [9]
  CFU decrease/increase with respect to untreated controls: -7%
  mean CFU number ± S.D.: 130 ± 29 CFU
C. albicans (ATCC 10231); [10]
  mean CFU number ± S.D.: 1,256 ± 129 CFU
C. albicans (ATCC 10231); [11]
  mean CFU number ± S.D.: 36 ± 15 CFU
C. albicans (ATCC 10231); [12]
  mean CFU number ± S.D.: 50 ± 29 CFU
C. albicans (ATCC 10231); peptide alone 0.032 mg/mL, 3 h
  CFU decrease/increase with respect to untreated controls: +51%
  mean CFU number ± S.D.: 211 ± 25 CFU
C. albicans (ATCC 10231); [13]
  CFU decrease/increase with respect to untreated controls: -5%
  mean CFU number ± S.D.: 1,563 ± 72 CFU
C. albicans (ATCC 10231); peptide alone 0.064 mg/mL, 3 h
  CFU decrease/increase with respect to untreated controls: +20%
  mean CFU number ± S.D.: 168 ± 14 CFU
C. albicans (ATCC 10231); [14]
  CFU decrease/increase with respect to untreated controls: -10%
  mean CFU number ± S.D.: 1,480 ± 198 CFU
C. albicans (ATCC 10231); peptide alone 0.128 mg/mL, 3 h
  CFU decrease/increase with respect to untreated controls: +5.7%
  mean CFU number ± S.D.: 148 ± 24 CFU
C. albicans (ATCC 10231); [15]
  CFU decrease/increase with respect to untreated controls: +6%
  mean CFU number ± S.D.: 1,732 ± 249 CFU
E. coli (ATCC 25922); [1]
  mean CFU number ± S.D.: 467 ± 19 CFU
E. coli (ATCC 25922); [2]
  CFU decrease/increase with respect to untreated controls: -2.9%
  mean CFU number ± S.D.: 167 ± 37 CFU
E. coli (ATCC 25922); [3]
  mean CFU number ± S.D.: 378 ± 8 CFU
E. coli (ATCC 25922); [4]
  CFU decrease/increase with respect to untreated controls: -12.7%
  mean CFU number ± S.D.: 150 ± 4 CFU
E. coli (ATCC 25922); [5]
  mean CFU number ± S.D.: 371 ± 54 CFU
E. coli (ATCC 25922); [6]
  CFU decrease/increase with respect to untreated controls: -2.9%
  mean CFU number ± S.D.: 167 ± 12 CFU
E. coli (ATCC 25922); [7]
  mean CFU number ± S.D.: 248 ± 88 CFU
E. coli (ATCC 25922); [8]
  CFU decrease/increase with respect to untreated controls: -15.1%
  mean CFU number ± S.D.: 146 ± 6 CFU
E. coli (ATCC 25922); [9]
  mean CFU number ± S.D.: 190 ± 15 CFU
E. coli (ATCC 25922); [10]
  CFU decrease/increase with respect to untreated controls: -21%
  mean CFU number ± S.D.: 136 ± 25 CFU
E. coli (ATCC 25922); [11]
  mean CFU number ± S.D.: 44 ± 4 CFU
E. coli (ATCC 25922); [12]
  CFU decrease/increase with respect to untreated controls: -8.1%
  mean CFU number ± S.D.: 158 ± 18 CFU
E. coli (ATCC 25922); peptide alone 0.032 mg/mL, 3 h
  CFU decrease/increase with respect to untreated controls: -1%
  mean CFU number ± S.D.: 1,037 ± 161 CFU
E. coli (ATCC 25922); [13]
  CFU decrease/increase with respect to untreated controls: +9%
  mean CFU number ± S.D.: 187 ± 11 CFU
E. coli (ATCC 25922); peptide alone 0.064 mg/mL, 3 h
  CFU decrease/increase with respect to untreated controls: -2%
  mean CFU number ± S.D.: 1031 ± 83 CFU
E. coli (ATCC 25922); [14]
  CFU decrease/increase with respect to untreated controls: +8%
  mean CFU number ± S.D.: 186 ± 14 CFU
E. coli (ATCC 25922); peptide alone 0.128 mg/mL, 3 h
  CFU decrease/increase with respect to untreated controls: -19%
  mean CFU number ± S.D.: 845 ± 55 CFU
E. coli (ATCC 25922); [15]
  CFU decrease/increase with respect to untreated controls: -3%
  mean CFU number ± S.D.: 166 ± 20 CFU
S. aureus (ATCC 25293); [16]
  CFU decrease/increase with respect to untreated controls: -17%
  mean CFU number ± S.D.: 129± 41 CFU
S. aureus (ATCC 25293); [17]
  CFU decrease/increase with respect to untreated controls: 0%
  mean CFU number ± S.D.: 177 ± 11 CFU
S. aureus (ATCC 25293); [18]
  CFU decrease/increase with respect to untreated controls: -18%
  mean CFU number ± S.D.: 127 ± 30 CFU
S. aureus (ATCC 25293); [19]
  CFU decrease/increase with respect to untreated controls: -17%
  mean CFU number ± S.D.: 147 ± 16 CFU
S. aureus (ATCC 25293); [20]
  CFU decrease/increase with respect to untreated controls: +6%
  mean CFU number ± S.D.: 194 ± 4 CFU
S. aureus (ATCC 25293); peptide 0.128 mg/mL + ZnCl2 (0.9:1)
  mean CFU number ± S.D.: 82 ± 16 CFU
S. aureus (ATCC 25293); peptide alone 0.032 mg/mL
  CFU decrease/increase with respect to untreated controls: -12%
  mean CFU number ± S.D.: 157 ± 35 CFU
S. aureus (ATCC 25293); peptide alone 0.064 mg/mL
  CFU decrease/increase with respect to untreated controls: +14%
  mean CFU number ± S.D.: 201 ± 40 CFU
S. aureus (ATCC 25293); peptide alone 0.128 mg/mL
  CFU decrease/increase with respect to untreated controls: +21%
  mean CFU number ± S.D.: 213 ± 23 CFU
